Assay results from patent US20060166934A1, “Composition comprising phytosphingosine derivatives for apoptosis induction” (Tae-Yoon Kim, priority 2002, published 2006).

Assays:
[1] = test system: Th1 cells activation against allogenic cells (PBMC); experiment: Reactions among allogenic cells, Th1 cells activation, MTT assay; type: cell-based, human; conditions: 50 μM, FIG. 5
Text: Whether the composition of the present invention has a suppressive effect on the Th1 cells activation by allogenic cells in immune reation was examined.
PBMC obtained from different volunteers as described in the above 5 were used for responder cells and stimulator cells respectively. PBMC for stimulator cells were used after X-ray irradiation (3000 rad) to inhibit the proliferation of stimulator cells.
(§1) Each 2×10^5 responder cells and stimulator cells were mixed with each other and cultured for 5 days on the 96-well plate. And RPMI with 10% of serum was used as a medium.
(§2) The above cells were cultured for 24 hours in the presence of 1, 10, 50 and 100 μM of NAPS, TAPS, and PS to examine the proliferation of the cells.
(§3) C2-ceramide was used as control.

[2] = test system: Th1 cells activation; experiment: Mixed leukocyte reaction (MLR), Th1 cells activation by TNBSO3, MTT assay; type: cell-based, mice; conditions: MLR with TNBSO3-conjugated stimulator cells, FIG. 4
Procedure: Whether the composition of the present invention has a suppressive effect on the Th1 cells activation which isolate […], IL-12, etc. by reacting with TNBSO3 […] was examined.
The mononuclear cells obtained from spleen of mice as described the above 4 were used for responder cells, and TNBSO3-conjugated cells were used for stimulator cells. The stimulator cells were obtained as follows:
The mononuclear cells were adjusted to be 2×10^7 cells/ml in PBS and the same volume of 20 mM TNBSO3 was added and incubated at 37° C. for 10 min in the dark state. After incubation, the cells wrer washed three times with PBS.
as §1, §2, §3

[3] = test system: human umbilical vein endothelial cells (HUVEC); experiment: MTT assay, cytotoxicity in HUVEC; type: cell-based
Procedure: (§4) Firstly, the cytotoxicity is measured by the MTT assay. Phytosphingosine (PS), phytosphingosine-HCl (PS-HCl), C6-phytosphingosine (C6-PS), CLA-phytosphingosine (CLA-PS), tetraacetyl phytosphingosine (TAPS), and N-acetyl phytosphingosine (NAPS) are dissolved into DMSO to have the final concentration of 1-100 μM.
(§5) In order to study the effects of the compositions of the present invention on the cytotoxicity in the human keratinocyte cell line HaCaT cells, the cell viability is analyzed by the MTT (3-[4,5-dimethylthiazol-2-yl]-2,5-diphenyltetrazolium bromide) assay. HaCaT cells are supplied by Professor N. Fuseng of German Cancer Research in Germany. HaCaT cells are seeded in a density of 1×10^6 cells in a […] and cultured in DMEM (Dulbecco's Modified Eagle Medium) containing 10% fetal bovine serum (FBS, GIBCO), 100 units/ml penicillin, and 100 μg/ml streptomycin for 48 hours. They are treated with trypsin and 1-2×10^4 cells per well are seeded again in a 96-well plate by using a serum-free culture medium, about 3 hours after which they are cultured by treatment with phytosphingosine derivatives. After they are cultured for 24 hours, the MTT reagent is added at a concentration of 2 mg/ml, cultured for 4 hours, suspended in DMSO after removing the culture medium completely in order to measure O.D. at 540 nm. C2-ceramide is used for comparison.
The MTT assay is used for the above purpose. Primary human umbilical vein endothelial cells are cultured from the human umbilical vein. The method of cell culture and the MTT assay are the same as those in the above. C2-ceramide is used for comparison.

[4] = test system: peripheral blood mononuclear cells (PBMC); experiment: MTT assay, cytotoxicity in peripheral blood mononuclear cells; type: cell-based, human; conditions: up to 100 μM, 24 hours, FIG. 3
Procedure: (§6) The effects of the composition of the present invention on the cytotoxicity in immune cells (T cells, B cells, macrophages, monocytes, etc.) obtained from human blood were examined. The blood was obtained from healthy volunteers and PBMC from the blood by mechanical aggregation method. And mononuclear cells containing T cells, B cells, macrophages and monocytes were isolated from single cells by density gradient centrifugation method using Ficoll Hypaque. Briefly, single cells were treated with PBS and overlayed on Ficoll Hypaque and centrifuged at 1500 rpm for 30 min. After centrifugation, the cells around the boundary of the Ficoll-Hapaque were collected and washed three times with PBS. Each 2×10^5 PBMC obtained from different volunteers was mixed with each other and cultured for 5 days on the 96-well plate. And RPMI with 10% of serum was used as a medium. The isolated cells were cultured for 24 hours in the presence of 1, 10, 50 and 100 μM of NAPS, TAPS, and PS to examine the effect of cytotoxicity, i.e. the degree of proliferation of the cells. C2-ceramide was used as control.

[5] = test system: A431 cells, human skin cancer cell line; experiment: MTT assay, cytotoxicity in human skin cancer cell line; type: cell-based
Procedure: as §4, §5
In order to study the effects of the compositions of the present invention on the cytotoxicity in A431 cells, human skin cancer cell line, the MTT assay is used. The method of cell culture and MTT assay are the same as those in the above method. C2-ceramide is used for comparison.

[6] = test system: human keratinocyte cell line HaCaT cells; experiment: MTT assay, cytotoxicity in human keratinocyte cell line; type: cell-based
Procedure: as §4, §5

[7] = test system: immune cells (T cells, B cells, macrophages, monocytes) from spleen of mice; experiment: MTT assay, cytotoxicity in immune cells separated from spleen of mice; type: cell-based
Procedure: as §6, with “effect” for “effects”, “etc.) was examined. The spleen was removed from normal mice (BDF) and single cells were” for “etc.)”, “from” for “from human blood were examined. The blood was obtained from healthy volunteers and PBMC from”, “spleen” for “blood”, “PBS.” for “PBS. Each 2×10^5 PBMC obtained from different volunteers was mixed with each other and cultured for 5 days on the 96-well plate. And RPMI with 10% of serum was used as a medium.”, “control. The medium used in this experiment was RPMI 1640 suplemented with 10% of FBS and 100 μg/ml of penicillin and streptomycin.” for “control.”

[8] = test system: HaCaT cells human keratinocyte cell line; experiment: MTT assay, combined administration with Vit D3 or calcipotriol; type: cell-based; conditions: 24 hours; for Cell viability: HaCaT, in %
Procedure: In order to study the synergistic effect in the cytotoxicity when the compositions of the present invention are administered in combination with Vit D3 or calcipotriol, the cell viability is analyzed by MTT assay method in HaCaT cells human keratinocyte cell line.
To HaCaT cells, 1 μM of Vit D3 or calcipotriol, or 10 μM each of NAPS and TAPS, is administered singly or in combination with each other, and they are cultured for 24 hours. And the effects of these drugs on the cytotoxicity according to the single or combined administration are observed by MTT assay. C2-ceramide is used for comparison.

[9] = test system: caspase-3; experiment: Immunoblot analysis of active caspase-3; type: cell-based, human; conditions: HaCaT, FIG. 11
Procedure: In the confirmation of apoptosis-related proteins, the immunoblot analysis is performed in order to look into the effects of the compositions of the present invention on the expression of caspase-3, p53, and Chk1 proteins related to the induction of apoptosis.
HaCaT cells are cultured on a 100-mm dish and collected at the indicative time. The proteins are extracted by adding 500 μl of RIPA lysis buffer (1% Nonidet P-40, 1% sodium deoxycholate, 0.1% SDS, […], 0.01 M sodium phosphate, pH 7.2, 2 mM EDTA, 50 mM sodium fluoride and 0.2 mM sodium vanadate), and the concentration is measured by using the Bradford method. 1
Extracted proteins is electrophoresed on 12% polyacrylamide gel, and they are transferred to the nitrocellulose membrane. The membrane blocked with 5% non-fat milk is reacted with the primary antibodies (caspase-3, p53, and Chk1), washed, and reacted with the secondary HRP-conjugated antibody. The intensity of proteins is analyzed by using the ECL kit.

[10] = test system: HaCaT cells; experiment: MTT assay, combined treatment with UVB irradiation; type: cell-based, human; design: Cell viability: unit not given here; conditions: HaCaT
Procedure: In order to study the synergistic effect in the cytotoxicity by the cotreatment with administration of the compositions of the present invention and with UVB irradiation, the cell viability is analyzed by MTT assay method in HaCaT cells. On a 100-mm dish, 1×10^6 HaCaT cells are seeded and cultured in DMEM containing 10% fetal bovine serum, 100 units/ml penicillin, and 100 μg/ml streptomycin for 48 hours. They are treated with trypsin, and 1-2×10^4 cells per well are seeded on a 96-well plate again by using a serum-free medium, which is removed after about 3 hours. HaCaT cells are washed with PBS three times, and 3.5 ml of PBS per plate is added. It is then irradiated with 200 J/m^2 of UVB. After irradiation, the medium is replaced with a DMEM medium. Then it is treated with the phytosphingosine derivatives of the present invention, and cultured for 24 hours. After 2 mg/ml of the MTT reagent is added, it is cultured for 4 hours. The medium is removed completely, the cells are suspended in DMSO, and O.D. is measured at 540 nm.

CCCCCCCCCCCCC/C=C/[C@@H](O)[C@H](CO)NC(C)=O [C2-ceramide, reference compound]
suppressive effect on Th1 cells activation against allogenic cells [1]: almost no suppressive effect | concentration showing a suppressive effect on Th1 cells activation [2]: 50 µM | Cell viability ([3]; 3.5 µM): 90 ± 11.6 | Cell viability ([3]; 7 µM): 60 ± 7.7 | Cell viability ([3]; 15 µM): 61 ± 8.4 | Cell viability ([3]; 30 µM): 34 ± 2.3 | cytotoxicity to PBMC [4]: did not show the cytotoxicity | Cell viability ([5]; 3 µM): 113 ± 19.8 | Cell viability ([5]; 10 µM): 97 ± 14.7 | Cell viability ([5]; 30 µM): 82 ± 1.4 | Cell viability ([5]; 50 µM): 74 ± 12.8 | Cell viability ([6]; 1 µM): 97 ± 3.8 | Cell viability ([6]; 3 µM): 98 ± 2.5 | Cell viability ([6]; 10 µM): 75 ± 1.3 | Cell viability ([6]; 30 µM): 33 ± 0.6 | IC50 [7]: ~75 µM | Cell viability ([8]; 10 μM combined with Vit D3 (1 μM)): 71 ± 9 | Cell viability ([8]; 10 μM combined with calcipotriol (1 μM)): 70 ± 4 | Cell viability ([8]; 10 μM singly): 78 ± 2 | time to maximum active caspase-3 ([9]; after treatment): ≤ 3 h | maximum increase of active caspase-3 (expression of induction) ([9]; immunoblot): 2.5 folds

CCCCCCCCCCCCCCC(O)C(O)C(CO)NC(=O)CCCCC (centres unmarked) [C6-PS, C6-phytosphingosine]
Cell viability ([5]; 3 µM): 106 ± 9.7 | Cell viability ([5]; 10 µM): 61 ± 8.1 | Cell viability ([5]; 30 µM): 57 ± 10.4 | Cell viability ([5]; 50 µM): 44 ± 9.6 | Cell viability ([6]; 1 µM): 84 ± 16.8 | Cell viability ([6]; 3 µM): 96 ± 7.2 | Cell viability ([6]; 10 µM): 74 ± 10.1 | Cell viability ([6]; 30 µM): 87 ± 1.3

CCCCCCCCCCCCCC[C@@H](O)[C@@H](O)[C@@H](N)CO.Cl [PS-HCl, phytosphingosine-HCl]
Cell viability ([5]; human, 24 h, 3 µM): 105 ± 5.8 | Cell viability ([5]; human, 24 h, 10 µM): 109 ± 8.6 | Cell viability ([5]; human, 24 h, 30 μM): 7 ± 1.6 | Cell viability ([5]; human, 24 h, 50 μM): 2 ± 0.2 | cytotoxicity ([5]; human, 24 h, 50 μM): 95-98% | Cell viability ([6]; human, 24 h, 1 µM): 100 ± 4.1 | Cell viability ([6]; human, 24 h, 3 µM): 101 ± 2.2 | Cell viability ([6]; human, 24 h, 10 µM): 79 ± 7.0 | Cell viability ([6]; human, 24 h, 30 μM): 36 ± 6.8 | Cell viability ([10]; 1 μM + UVB 200 J/m^2, 24 hours): 39 ± 4.5 | Cell viability ([10]; 1 μM, no UVB, 24 hours): 83 ± 7.9 | Cell viability ([10]; 3 μM + UVB 200 J/m^2, 24 hours): 24 ± 2.0 | Cell viability ([10]; 3 μM, no UVB, 24 hours): 78 ± 10.0 | Cell viability ([10]; 5 μM + UVB 200 J/m^2, 24 hours): 25 ± 1.9 | Cell viability ([10]; 5 μM, no UVB, 24 hours): 78 ± 6.7 | Cell viability ([10]; 10 μM + UVB 200 J/m^2, 24 hours): 2 ± 0.5 | Cell viability ([10]; 10 μM, no UVB, 24 hours): 75 ± 8.2

C=C1CC[C@H](O)C/C1=C/C=C1\CCC[C@]2(C)[C@@H]([C@H](C)CCCC(C)C)CC[C@@H]12 [Vit D3, vitamin D3, reference compound]
toxicity ([8]; 1 μM singly): 19% | Cell viability ([8]; 1 μM singly): 81 ± 3

CLA-phytosphingosine [CLA-PS]
Cell viability ([5]; 3 µM): 91 ± 11.0 | Cell viability ([5]; 10 µM): 98 ± 12.9 | Cell viability ([5]; 30 µM): 60 ± 6.2 | Cell viability ([5]; 50 µM): 65 ± 5.5 | Cell viability ([6]; 1 µM): 66 ± 7.8 | Cell viability ([6]; 3 µM): 64 ± 9.9 | Cell viability ([6]; 10 µM): 58 ± 0.4 | Cell viability ([6]; 30 µM): 55 ± 9.1
